Columns and labels:
Assay in all cases: relative viability (nuclei count vs DMSO), 5 days (fraction); higher = more cells survive
[1] = compound: C[As](C)SC[C@H](NC(=O)CC[C@H](N)C(=O)O)C(=O)NCC(=O)O [Darinaparsin] + CS(=O)(=O)N1CCN(Cc2cc3nc(-c4cccc5[nH]ncc45)nc(N4CCOCC4)c3s2)CC1 [Pictilisib] (partner 1 µM)
Procedure, shortened: (§1)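 Medians of duplicate plates are given as relative viability. That measure is the nuclei count in treated wells divided by the count in vehicle wells. Counts were taken on 4× images of lung cancer cell lines in 1536-well plates, 5 days after pin-tool dosing the day after seeding with one drug alone or a fixed anchor-drug dose plus five library-drug doses (not always all listed) in √10 steps.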

[2] = compound: C[As](C)SC[C@H](NC(=O)CC[C@H](N)C(=O)O)C(=O)NCC(=O)O [Darinaparsin] + Nc1ncn([C@H]2C[C@H](O)[C@@H](CO)O2)c(=O)n1 [Decitabine] (partner 2 µM)
Procedure, shortened: as §1

QS11 + Lapatinib = compound: C1CC2=C(C1)C=C(C=C2)OC3=NC(=C4C(=N3)N(C=N4)CC5=CC=C(C=C5)C6=CC=CC=C6)N[C@@H](CC7=CC=CC=C7)CO [QS11] + CS(=O)(=O)CCNCc1ccc(-c2ccc3ncnc(Nc4ccc(OCc5cccc(F)c5)c(Cl)c4)c3c2)o1 [Lapatinib] (partner 2 µM)
Procedure, shortened: as §1

[3] = compound: C[As](C)SC[C@H](NC(=O)CC[C@H](N)C(=O)O)C(=O)NCC(=O)O [Darinaparsin] + CC(=O)c1c(C)c2cnc(Nc3ccc(N4CCNCC4)cn3)nc2n(C2CCCC2)c1=O [Palbociclib] (partner 0.5 µM)
Procedure, shortened: as §1

Cell Line	relative viability ([1]; first compound 0.08 µM)	relative viability ([1]; first compound 0.8 µM)	relative viability ([1]; first compound 2.53 µM)	relative viability ([1]; first compound 8 µM)	relative viability ([2]; first compound 0.08 µM)	relative viability ([2]; first compound 0.8 µM)	relative viability ([2]; first compound 2.53 µM)	relative viability ([2]; first compound 8 µM)	relative viability (QS11 + Lapatinib; first compound 0.08 µM)	relative viability (QS11 + Lapatinib; first compound 0.253 µM)	relative viability (QS11 + Lapatinib; first compound 0.8 µM)	relative viability (QS11 + Lapatinib; first compound 2.53 µM)	relative viability (QS11 + Lapatinib; first compound 8 µM)	relative viability ([3]; first compound 0.08 µM)	relative viability ([3]; first compound 0.8 µM)	relative viability ([3]; first compound 2.53 µM)	relative viability ([3]; first compound 8 µM)
HCC-78	0.191	0.228	0.246	0.267	0.729	0.668	0.65	0.853	0.577	0.876	0.699	0.627	0.847	0.46	0.509	0.475	0.503
NCI-H23	0.431	0.494	0.444	0.603	0.341	0.292	0.35	0.311	1.01	0.988	0.871	0.885	1.1	0.549	0.52	0.51	0.479
NCI-H838	0.481	0.407	0.39	0.472	0.488	0.425	0.47	0.513	0.944	0.918	0.68	0.899	0.904	0.245	0.216	0.229	0.229
NCI-H1793	0.25	0.31	0.355	0.299	0.461	0.483		0.485	0.807	0.659	0.802	0.925	1.1	0.359	0.374		0.369
COR-L23	1.06	0.706	0.41	0.932	0.496	0.394	0.348	0.496	1.1	1.08	0.68	0.582	0.849	0.303	0.335	0.246	0.299
ABC-1	0.793	0.648	0.738	0.904	1.16	1.09	1.1	0.953	1.18	1.44	1.16	1.16	1.47	0.879	0.6	0.744	0.729
SW 1573	0.621	0.545	0.49	0.495	0.564	0.468	0.61	0.555	1.02	1.14	1.1	1.05	1.2	0.412	0.353	0.355	0.488
HARA	0.393	0.371	0.324	0.413	0.6		0.51	0.603	0.675	0.643		0.708	0.751	0.25	0.257	0.21	0.29
NCI-H1755	0.461	0.398	0.355	0.38	0.748	0.801	0.714	0.784	1.12	1.02	0.608	0.953	0.833	0.483	0.457	0.46	0.469
NCI-H460	0.479	0.415	0.373	0.406	0.749	0.496	0.461	0.59	1.4	1.14	0.567	0.686	0.24	0.147	0.176	0.117	0.181
NCI-H2170	0.305	0.279	0.316	0.297	0.488	0.502	0.544	0.458	0.276	0.262	0.246	0.281	0.316	0.427	0.425	0.385	0.411
NCI-H3122	0.711	0.583	0.636	0.707	0.425	0.437	0.42	0.442	1.03	1.14	0.71	1.16	0.824	0.19	0.223	0.223	0.201
COR-L 105	0.446	0.411		0.429	0.642	0.711	0.621	0.666	0.38	0.363	0.343	0.412	0.396	0.456	0.373	0.397	0.382
NCI-H2087	1.06	0.881	0.652	0.997	0.322	0.286	0.28	0.282	0.996	1.09	0.728	0.651	0.688	0.225	0.215	0.169	0.204
NCI-H1792	0.169	0.235	0.243	0.356	0.694	0.512		0.588		1.03	0.633	0.937	0.711	0.634	0.633	0.524	0.754
HCC-366	0.108	0.13	0.158	0.162	0.407		0.413	0.352	0.97	0.992		0.67	0.246	0.603		0.368	0.533
NCI-H2347	0.708	0.636	0.694	0.783	0.667	0.632	0.733	0.697	0.867	0.93	0.795	0.859	1.02	0.43	0.404	0.447	0.4

Cell Line	relative viability ([1]; first compound 0.08 µM)	relative viability ([1]; first compound 0.8 µM)	relative viability ([1]; first compound 2.53 µM)	relative viability ([1]; first compound 8 µM)	relative viability ([2]; first compound 0.08 µM)	relative viability ([2]; first compound 0.8 µM)	relative viability ([2]; first compound 2.53 µM)	relative viability ([2]; first compound 8 µM)	relative viability (QS11 + Lapatinib; first compound 0.08 µM)	relative viability (QS11 + Lapatinib; first compound 0.253 µM)	relative viability (QS11 + Lapatinib; first compound 0.8 µM)	relative viability (QS11 + Lapatinib; first compound 2.53 µM)	relative viability (QS11 + Lapatinib; first compound 8 µM)	relative viability ([3]; first compound 0.08 µM)	relative viability ([3]; first compound 0.8 µM)	relative viability ([3]; first compound 2.53 µM)	relative viability ([3]; first compound 8 µM)
201T	0.757	0.622	0.623	0.767	0.853	0.83	0.875	0.861	1.05	0.835	0.834	1.11	0.895	0.345	0.342	0.363	0.368
NCI-H358	0.315	0.319	0.343	0.319	0.189	0.21	0.231	0.193	0.41	0.436	0.482	0.703	0.785	0.141	0.128	0.127	0.139
NCI-H1993	0.885	0.783	0.695	0.848	0.626	0.584	0.608	0.586	0.823	0.962	0.601	0.751	0.882	0.586	0.743	0.59	0.68
NCI-H2009	0.94	0.759	0.815	0.711	0.412	0.354	0.375	0.398	0.983	0.884	0.634	0.855	0.728	0.208	0.166	0.225	0.203
EMC-BAC-2	0.607	0.501	0.582	0.568	0.916	0.907	1.18	0.969	0.927	0.89	0.884	0.984	0.89	0.516	0.491	0.515	0.54
NCI-H2023	0.284	0.193	0.217	0.262	0.219	0.219	0.196	0.216	0.809	0.797	0.747	0.773	0.706	0.393	0.333	0.344	0.431
RERF-LC-KJ	0.576	0.571	0.522	0.44	0.728	0.68	0.687	0.561	0.588	0.877	0.577	0.77	0.882	1.13	1.11	1.02	1.08
H3255	0.474	0.429	0.421	0.514	0.634	0.587	0.662	0.674	0.261	0.236		0.24	0.234	0.303	0.313	0.329	0.294
HCC-827	1.06	0.907	0.901	1.01	0.284	0.316	0.32	0.363	0.176	0.226	0.158	0.243	0.227	0.514	0.519	0.414	0.477
LXF-289	0.806	0.749	0.597	0.981	0.41	0.424	0.347	0.4	0.941	0.909	0.757	0.821	0.739	0.638	0.611	0.488	0.562
NCI-H727	0.405	0.425	0.297	0.465	0.891	0.816	0.9	1.04	1	0.714	0.892	0.665	0.639	0.692	0.573	0.698	0.585
NCI-H322M	0.58	0.495	0.469	0.59	0.704	0.686	0.577	0.724	0.573	0.642	0.559	0.576	0.628	0.478	0.456	0.487	0.442
NCI-H2126	0.506	0.499	0.474	0.533	0.597	0.578	0.575	0.635	0.792	0.698	0.727	0.802	0.717	0.371	0.344	0.352	0.334
NCI-H2405	0.5	0.443	0.422	0.537	0.802	0.716	0.663	0.735	0.951	1.02	1.02	1.29	1.07	0.532	0.492	0.473	0.606
NCI-H1944	0.359	0.307	0.348	0.374	0.437	0.466	0.452	0.442	0.857	0.704		0.89	0.598	0.314	0.339	0.31	0.404
NCI-H520	0.287	0.339	0.241	0.277	0.528	0.55	0.472	0.552		1.05	0.863	0.99	1.13	0.149	0.208	0.216	0.248
EKVX	0.508	0.404	0.452	0.488	0.339	0.323	0.382	0.314	0.189	0.167		0.216	0.201	0.451	0.365	0.366	0.38
